# According to US20230085307A1, “PYRIDAZINONE COMPOUND AND HERBICIDE” (NISSAN CHEMICAL CORPORATION, priority 2019, published 2023):
# What was measured:
# windgrass = experiment: Test Example 5: herbicidal effect by foliage application, plastic box (Table 20, symbol L); type: in vivo, windgrass (Apera spica-venti); details: foliage application, 320 g/ha, three weeks after application
# Method in brief: (§1)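 Sow seeds spot-wise in sterilized diluvial soil; cover with ~1.5 cm soil. Grow 14 days in greenhouse, 25° C. to 30° C. Spray foliage with emulsion diluted to predetermined amount. Rate effect after 3 weeks.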
# southern crabgrass = experiment: Test Example 5: herbicidal effect by foliage application, plastic box (Table 20, symbol F); type: in vivo, southern crabgrass (Digitaria ciliaris); details: foliage application, 320 g/ha, three weeks after application
# Method in brief: as §1
# chickweed = experiment: Test Example 5: herbicidal effect by foliage application, plastic box (Table 20, symbol P); type: in vivo, common chickweed (Stellaria media); details: foliage application, 320 g/ha, three weeks after application
# Method in brief: as §1
# wild oat [1] = experiment: Test Example 4: herbicidal effect by soil treatment (Table 19, symbol I); type: in vivo, wild oat (Avena fatua); details: amount of applied herbicide 320 g/ha
# Text: (§2) [Test Example 4] Herbicidal Effect Test by Soil Treatment
# (§3) Sterilized diluvial soil was placed in a plastic box having a length of 21 cm, a width of 13 cm, and a depth of 7 cm. The seeds of each of southern crabgrass, green foxtail, barnyard grass, wild oat, blackgrass, Italian ryegrass, windgrass, velvetleaf, redroot pigweed, lambsquarters, chickweed, false cleavers, persian speedwell, corn, soybean, rice, wheat, beet, and rapeseed were sowed in a spot-like manner and covered with the soil having a thickness of about 1.5 cm. Subsequently, the emulsion agent of the compound of the present invention prepared according to Formulation Example 2 was diluted with water so as to achieve a predetermined herbicide amount, and the diluted emulsion agent was uniformly applied to the surface of the soil with a small-sized spray. The plastic box was placed in a greenhouse at 25° C. to 30° C. for growth of the plants. Three weeks after the herbicide application, the effect of the herbicide on each plant was evaluated according to the criteria of Test Example 1.
# barnyard grass [2] = experiment: Test Example 3: herbicidal effect by foliage application, Wagner pot (Table 18, symbol H); type: in vivo, barnyard grass (Echinochloa crus-galli); details: 320 g/ha
# Method in brief: (§4)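 Plants were sown in alluvial soil held under 0.1–0.5 cm standing water and grown 14 days in a greenhouse at 25–30 °C. An emulsifiable formulation, water-diluted to the set dose, was then sprayed onto the foliage, and effects were scored three weeks later using previously defined criteria.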
# redroot pigweed [3] = experiment: Test Example 4: herbicidal effect by soil treatment (Table 19, symbol N); type: in vivo, redroot pigweed (Amaranthus retroflexus); details: amount of applied herbicide 320 g/ha
# Text: as §2, §3
# barnyard grass [4] = experiment: Test Example 5: herbicidal effect by foliage application, plastic box (Table 20, symbol H); type: in vivo, barnyard grass (Echinochloa crus-galli); details: foliage application, 320 g/ha, three weeks after application
# Method in brief: as §1
# Italian ryegrass [5] = experiment: Test Example 4: herbicidal effect by soil treatment (Table 19, symbol K); type: in vivo, Italian ryegrass (Lolium multiflorum); details: amount of applied herbicide 320 g/ha
# Text: as §2, §3
# Italian ryegrass [6] = experiment: Test Example 5: herbicidal effect by foliage application, plastic box (Table 20, symbol K); type: in vivo, Italian ryegrass (Lolium multiflorum); details: foliage application, 320 g/ha, three weeks after application
# Method in brief: as §1
# velvetleaf = experiment: Test Example 5: herbicidal effect by foliage application, plastic box (Table 20, symbol M); type: in vivo, velvetleaf (Abutilon theophrasti); details: foliage application, 320 g/ha, three weeks after application
# Method in brief: as §1
# rice flat sedge = experiment: Test Example 3: herbicidal effect by foliage application, Wagner pot (Table 18, symbol E); type: in vivo, rice flat sedge (Cyperus iria); details: 320 g/ha
# Method in brief: as §4
# redroot pigweed [7] = experiment: Test Example 5: herbicidal effect by foliage application, plastic box (Table 20, symbol N); type: in vivo, redroot pigweed (Amaranthus retroflexus); details: foliage application, 320 g/ha, three weeks after application
# Method in brief: as §1
# green foxtail = experiment: Test Example 5: herbicidal effect by foliage application, plastic box (Table 20, symbol G); type: in vivo, green foxtail (Setaria viridis); details: foliage application, 320 g/ha, three weeks after application
# Method in brief: as §1
# blackgrass = experiment: Test Example 5: herbicidal effect by foliage application, plastic box (Table 20, symbol J); type: in vivo, blackgrass (Alopecurus myosuroides); details: foliage application, 320 g/ha, three weeks after application
# Method in brief: as §1
# Chinese sprangletop = experiment: Test Example 3: herbicidal effect by foliage application, Wagner pot (Table 18, symbol D); type: in vivo, chinese sprangletop (Leptochloa chinensis); details: 320 g/ha
# Method in brief: as §4
# persian speedwell = experiment: Test Example 5: herbicidal effect by foliage application, plastic box (Table 20, symbol R); type: in vivo, Persian speedwell (Veronica persica); details: foliage application, 320 g/ha, three weeks after application
# Method in brief: as §1
# lambsquarters = experiment: Test Example 5: herbicidal effect by foliage application, plastic box (Table 20, symbol O); type: in vivo, lambsquarters (Chenopodium album); details: foliage application, 320 g/ha, three weeks after application
# Method in brief: as §1
# wild oat [8] = experiment: Test Example 5: herbicidal effect by foliage application, plastic box (Table 20, symbol I); type: in vivo, wild oat (Avena fatua); details: foliage application, 320 g/ha, three weeks after application
# Method in brief: as §1
compound,measurement,setting,value
Cc1nn(C)c(=O)c(-c2c(-c3ccc(OC(F)(F)F)cc3)sc3ccccc23)c1O [1-031],"herbicidal effect grade, L: windgrass",windgrass,0 (Herbicidal rate of 5% or less (almost no effect))
same,"herbicidal effect grade, F: southern crabgrass",southern crabgrass,0 (Herbicidal rate of 5% or less (almost no effect))
same,"herbicidal effect grade, P: chickweed",chickweed,5 (Herbicidal rate of 90% or more (almost completely withered))
same,"herbicidal effect rating, I: wild oat",wild oat [1],0 (Herbicidal rate of 5% or less (almost no effect))
same,"herbicidal effect on H (barnyard grass), rating 0-5",barnyard grass [2],4 (Herbicidal rate of 70% or more and less than 90%)
same,"herbicidal effect rating, N: redroot pigweed",redroot pigweed [3],4 (Herbicidal rate of 70% or more and less than 90%)
same,"herbicidal effect grade, H: barnyard grass",barnyard grass [4],3 (Herbicidal rate of 40% or more and less than 70%)
same,"herbicidal effect rating, K: Italian ryegrass",Italian ryegrass [5],3 (Herbicidal rate of 40% or more and less than 70%)
same,"herbicidal effect grade, K: Italian ryegrass",Italian ryegrass [6],5 (Herbicidal rate of 90% or more (almost completely withered))
same,"herbicidal effect grade, M: velvetleaf",velvetleaf,5 (Herbicidal rate of 90% or more (almost completely withered))
same,"herbicidal effect on E (rice flat sedge), rating 0-5",rice flat sedge,5 (Herbicidal rate of 90% or more (almost completely withered))
same,"herbicidal effect grade, N: redroot pigweed",redroot pigweed [7],5 (Herbicidal rate of 90% or more (almost completely withered))
same,"herbicidal effect grade, G: green foxtail",green foxtail,4 (Herbicidal rate of 70% or more and less than 90%)
same,"herbicidal effect grade, J: blackgrass",blackgrass,3 (Herbicidal rate of 40% or more and less than 70%)
same,"herbicidal effect on D (Chinese sprangletop), rating 0-5",Chinese sprangletop,0 (Herbicidal rate of 5% or less (almost no effect))
same,"herbicidal effect grade, R: persian speedwell",persian speedwell,5 (Herbicidal rate of 90% or more (almost completely withered))
same,"herbicidal effect grade, O: lambsquarters",lambsquarters,5 (Herbicidal rate of 90% or more (almost completely withered))
same,"herbicidal effect grade, I: wild oat",wild oat [8],0 (Herbicidal rate of 5% or less (almost no effect))
